Article PMC9023544, “Ketone-selenoesters as potential anticancer and multidrug resistance modulation agents in 2D and 3D ovarian and breast cancer in vitro models” (Scientific Reports, 2022)

Assays:
[1] = system: HOC; experiment: Oxidation stress (ROS), Muse Oxidative Stress Kit; type: cell-based, human; conditions: 1 µM (DMSO 5% V/V), 24 h
Procedure: Selenoesters (K3, K4, K7) were tested for their ability to generate reactive oxygen species (ROS). HOC was exposed to selenoesters in concentration of 1 µM for 24 h. DMSO (5% V/V) was used as a positive control. The required volume of DMSO (1% V/V) was added to untreated cells. ROS are essential biomolecules in cellular regulation as a part of the defence mechanisms. On the other hand, their participation in cell signalling may affect apoptosis and other death pathways. In the assay, dihydroethidium (DHE) reacts with superoxide anions by forming DNA-binding fluorophore ethidium bromide. Based on fluorescence, the cell population can be distinguished into ROS negative and ROS positive cells containing oxygen radicals.
To determine the oxidation stress potential of selected selenoesters, HOC were seeded into 24-well plates at a density 2 × 10^5 cells/mL for 24 h according to the above mentioned procedure. Afterwards, the plates were washed 1 ×with PBS and fresh DMEM medium containing compounds K3, K4, K7 (final concentration—1 µM) was added for 24 h, except for the positive and negative control. […] as the oxidation stress inductor. After incubation, the cells were washed 1× with PBS and released from the surface by using a trypsin–EDTA solution. After trypsin inhibition by medium addition, the cell suspensions were centrifuged (100×g, 5 min, 25 °C), supernatants were removed, and cell pellets resuspended in 1× assay buffer. All reagents were prepared immediately before use. Afterwards, 10 µL of the cell suspension were mixed with 190 µL of working solution (Muse Oxidative stress reagent) and stained for 30 min at 37 °C. Subsequently, the […] were analysed by Guava Muse Cell Analyzer. Oxidation stress detection was performed following the instructions provided by the manufacturer.

[2] = system: HOC (human parental ovarian adenocarcinoma, A2780); experiment: Cytotoxic activity, 2D, resazurin, 72 h; type: cell-based
Procedure: (§1) The cytotoxic potential of selenoesters was tested on several cancer cell lines—HOC (human parental ovarian adenocarcinoma, HOC, A2780, Sigma-Aldrich), HOC/ADR (sub-line resistant to Adriamycin, A2780/ADR, Sigma-Aldrich), MCF-7 (human breast adenocarcinoma, ATCC®, HTB-22TM), MCF-7/PAX (resistant sub-line established by gradual adaptation of parental cells to increased concentration of paclitaxel; kindly provided by Division of Cell and Molecular Biology, Third Faculty of Medicine, Charles University, Czech Republic) and on one non-cancerous cell line—HEK293 (human embryonic kidney cell line, Leibniz Institute, DSMZ-German Collection of Microorganisms and Cell Cultures GmbH). All mentioned cell lines were authenticated using short tandem repeat (STR) profiling. Cell lines were cultivated in DMEM medium (10% FBS, 1× antibiotic antimycotic solution), except for HEK293 cell line which was cultivated without antibiotics. In case of the resistant cell lines, the medium was supplemented with a required concentration of cytostatics to maintain resistance (HOC/ADR—100 nM Adriamycin; MCF-7/PAX—300 nM paclitaxel). All cells were cultivated in a CO2 incubator (5% CO2, 37 °C, Thermo Fisher Scientific).
(§2) For the experiment, the cells at passage number 5–20 were seeded at a 1 × 10^5 cells/mL concentration into 96-well plates to 100 µL final volume. The final concentration range of the compounds was 0.63–20 µM. After an incubation of 72 h, the plates were washed 1× with PBS and resazurin solution (0.03 mg/mL in 1× PBS) was added. After 1 h of incubation, the fluorescence signal was recorded (ex./em. 560/590 nm).
(§3) The selectivity index (SI) was determined as the ratio of IC50 value for the non-cancerous cells to IC50 for the cancer cell line. For resistant cell lines, the collateral sensitivity (CS) was calculated as the ratio of IC50 value in sensitive tumour cells to IC50 in the resistant cancer cell line. In both cases, the selectivity is considered as: (1) strongly selective when SI or CS value is above 6, (2) moderately selective when SI or CS is between 3 and 6, (3) slightly selective when SI or CS is between 1 and 3 and (4) non-selective when SI or CS is less than 1[23].

[3] = system: MCF-7 (human breast adenocarcinoma); experiment: Cytotoxic activity, 2D, resazurin, 72 h; type: cell-based
Procedure: as §1, §2, §3

[4] = system: HOC/ADR (sub-line resistant to Adriamycin, A2780/ADR); experiment: Cytotoxic activity, 2D, resazurin, 72 h; type: cell-based, human
Procedure: as §1, §2, §3

[5] = system: MCF-7/PAX (paclitaxel-resistant sub-line); experiment: Cytotoxic activity, 2D, resazurin, 72 h; type: cell-based, human
Procedure: as §1, §2, §3

[6] = system: HEK293 (human embryonic kidney cell line); experiment: Cytotoxic activity, non-cancerous cell line, resazurin, 72 h; type: cell-based; conditions: Homo sapiens, HEK293; 72 h, mean ± SEM, n=3
Procedure: as §1, §2, §3

[7] = system: HOC/ADR; experiment: Sensitization of MDR cell line to Adriamycin; type: cell-based, human; conditions: IC50 of Adriamycin / IC50 of Adriamycin with IC10 dose of compound
Procedure: To determine the sensitization potential of compounds, HOC/ADR and MCF-7/PAX were used. Based on the cytotoxic potential of the compounds against several cancer and non-cancerous cell lines (Table 1), the concentrations of applied compounds were adjusted. IC10 values was considered as the concentrations, which should not decrease the cell viability under 90%. After the addition of compounds, Adriamycin (concentration range 0.1–20 µM) and paclitaxel (concentration range 0.1–10 µM) were added to HOC/ADR and MCF-7/PAX, respectively. The sensitization potential of the compounds was determined as the ratio of the IC50 of cytostatic agent (Adriamycin/paclitaxel) to the IC50 of cytostatic agent affected by the compound in concentration corresponding to the IC10 value. Fold change greater than 1 indicated synergic effect of cytostatic agent and the tested compound.
After that, the plates were washed 1× with PBS and fresh DMEM medium supplemented with tested compounds at final concentration corresponding their IC10 value was added, except for positive control wells. Subsequently, Adriamycin (concentration range 0.1–20 µM) or paclitaxel (concentration range 0.1–10 µM) was added to the appropriate cell line for 72 h. After incubation, the cells were washed 1× with PBS and the resazurin solution (0.03 mg/mL) was added to evaluate the cell viability as described above. IC50 values of cytostatics were calculated for both the control and compounds; a fold change was counted up. When this fold change is higher than 1 indicates a synergism between the tested cytostatic agent and the compound, while a fold change lower than 1 means an antagonism. Fold change=IC50value of cytostatic treated cells only/IC50value of cytostatic treated cells in addition of the compound

[8] = system: prostate metastatic cancer line; parameters: method as in PMID 21549092; conditions: cited from earlier work

SMILES: C[S+](C)[O-] [DMSO (5% V/V), dimethyl sulfoxide, reference compound]
- ROS(+) cells [1]: 68.7 ± 1.9 %
- ROS(−) cells [1]: 31.8 ± 2.3 %

SMILES: N#CC[Se]C(=O)c1cc(C(F)(F)F)cc(C(F)(F)F)c1 [N7]
- IC50 ([2]; Homo sapiens, A2780, 72 h, 2D, 72 h, mean ± SEM, n=3, read-out: HOC IC50): 2.9 ± 0.1 µM
- SI HEK293/HOC ([2]; IC50 HEK293 / IC50 HOC): 2.3 ± 0.3
- IC50 ([3]; Homo sapiens, MCF7, 2D, 72 h, mean ± SEM, n=3, read-out: MCF-7 IC50): 2.2 ± 0.1 µM
- SI HEK293/MCF-7 ([3]; IC50 HEK293 / IC50 MCF-7): 3.0 ± 0.5
- selectivity versus HEK293 (in words) ([3]; sensitive MCF-7): moderate selectivity
- IC10 ([4]; Homo sapiens, A2780 ADR, 72 h, HOC/ADR, concentration that should not decrease viability under 90%, read-out: IC10 of compounds): 3.1 µM
- IC50 ([4]; Homo sapiens, A2780 ADR, 2D, 72 h, mean ± SEM, n=3, read-out: HOC/ADR IC50): 5.7 ± 0.2 µM
- SI HEK293/HOC/ADR ([4]; IC50 HEK293 / IC50 HOC/ADR): 1.2 ± 0.1
- IC50 ([5]; Homo sapiens, MCF7, 2D, 72 h, mean ± SEM, n=3, read-out: MCF-7/PAX IC50): 2.7 ± 0.3 µM
- SI HEK293/MC7-7/PAX ([5]; IC50 HEK293 / IC50 MCF-7/PAX): 2.5 ± 0.4
- CS (collateral sensitivity index) ([5]; IC50 MCF-7 / IC50 MCF-7/PAX): 0.8 ± 0.1
- IC50 [6]: 6.6 ± 0.6 µM
- Fold change [7]: (1.1 ± 0.1)×

SMILES: CC(=O)O[C@@]12CO[C@@H]1C[C@H](O)[C@@]1(C)C(=O)[C@H](O)C3=C(C)[C@@H](OC(=O)[C@H](O)[C@@H](NC(=O)OC(C)(C)C)c4ccccc4)C[C@@](O)([C@@H](OC(=O)c4ccccc4)[C@H]21)C3(C)C [docetaxel]
- growth inhibition [8]: 22%

SMILES: O=[Se]([O-])[O-].[Na+].[Na+] [sodium selenite]
- growth inhibition [8]: 24%
